Measurements as given in patent publication US9458110B2, “Phenylpyrazole derivatives as potent ROCK1 and ROCK2 inhibitors” (BRISTOL-MYERS SQUIBB COMPANY, priority 2013, dated 2016).

What was measured:
ROCK2 = ROCK2 (Homo sapiens (Human), UniProt O75116); test: ROCK assay (Caliper LABCHIP peptide phosphorylation), ROCK2; type: biochemical; conditions: 5 μM ATP, 1.5 μM peptide substrate;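 also: reaction stopped with EDTA, then phosphorylated and unphosphorylated peptide resolved by microfluidic electrophoresis, kinase inhibition computed at each compound concentration in dose-response series, DMSO under 2%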
ROCK1 = ROCK1 (Homo sapiens (Human), UniProt Q13464); test: ROCK assay (Caliper LABCHIP peptide phosphorylation), ROCK1; type: biochemical; conditions: 5 μM ATP, 1.5 μM peptide substrate;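 also: Read-out is separation of phosphorylated from unphosphorylated peptide, with kinase activity inhibition computed at every concentration of a dose-response series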
ROCK1, sequence (Q13464 whole entry, species assumed): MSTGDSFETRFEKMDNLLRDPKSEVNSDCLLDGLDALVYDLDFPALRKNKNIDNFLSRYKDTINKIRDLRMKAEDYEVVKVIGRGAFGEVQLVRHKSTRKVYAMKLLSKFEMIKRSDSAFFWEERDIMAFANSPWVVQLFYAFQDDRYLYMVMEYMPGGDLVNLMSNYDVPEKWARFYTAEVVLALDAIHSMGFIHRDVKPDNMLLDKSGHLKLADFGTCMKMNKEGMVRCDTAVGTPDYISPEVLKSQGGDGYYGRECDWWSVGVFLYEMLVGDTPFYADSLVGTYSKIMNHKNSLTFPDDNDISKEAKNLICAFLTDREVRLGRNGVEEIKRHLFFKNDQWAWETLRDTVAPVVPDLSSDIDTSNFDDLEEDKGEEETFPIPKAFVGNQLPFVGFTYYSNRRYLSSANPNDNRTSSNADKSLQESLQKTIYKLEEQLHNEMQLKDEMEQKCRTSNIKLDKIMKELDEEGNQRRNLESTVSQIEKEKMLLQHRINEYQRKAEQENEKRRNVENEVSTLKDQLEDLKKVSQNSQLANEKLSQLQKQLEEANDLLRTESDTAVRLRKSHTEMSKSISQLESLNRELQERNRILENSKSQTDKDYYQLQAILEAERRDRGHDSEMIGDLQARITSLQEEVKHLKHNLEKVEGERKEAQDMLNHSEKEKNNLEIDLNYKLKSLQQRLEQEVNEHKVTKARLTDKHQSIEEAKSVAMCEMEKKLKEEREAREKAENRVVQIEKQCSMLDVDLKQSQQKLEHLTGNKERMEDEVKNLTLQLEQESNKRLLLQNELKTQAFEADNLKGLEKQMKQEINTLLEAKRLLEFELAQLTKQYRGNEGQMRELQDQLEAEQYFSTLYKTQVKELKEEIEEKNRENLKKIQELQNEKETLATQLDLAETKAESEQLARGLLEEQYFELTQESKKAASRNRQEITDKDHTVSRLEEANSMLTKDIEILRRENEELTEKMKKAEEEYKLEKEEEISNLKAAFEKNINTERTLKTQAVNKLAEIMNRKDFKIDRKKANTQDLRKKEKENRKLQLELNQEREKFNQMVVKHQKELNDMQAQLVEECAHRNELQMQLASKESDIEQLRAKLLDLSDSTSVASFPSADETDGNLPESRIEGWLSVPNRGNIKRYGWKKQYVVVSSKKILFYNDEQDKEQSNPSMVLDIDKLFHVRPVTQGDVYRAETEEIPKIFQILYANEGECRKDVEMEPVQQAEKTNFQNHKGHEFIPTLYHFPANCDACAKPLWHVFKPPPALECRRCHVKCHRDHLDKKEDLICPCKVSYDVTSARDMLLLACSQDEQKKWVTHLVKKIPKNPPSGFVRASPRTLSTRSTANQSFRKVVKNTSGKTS

ROCK2, sequence (O75116 whole entry, species assumed): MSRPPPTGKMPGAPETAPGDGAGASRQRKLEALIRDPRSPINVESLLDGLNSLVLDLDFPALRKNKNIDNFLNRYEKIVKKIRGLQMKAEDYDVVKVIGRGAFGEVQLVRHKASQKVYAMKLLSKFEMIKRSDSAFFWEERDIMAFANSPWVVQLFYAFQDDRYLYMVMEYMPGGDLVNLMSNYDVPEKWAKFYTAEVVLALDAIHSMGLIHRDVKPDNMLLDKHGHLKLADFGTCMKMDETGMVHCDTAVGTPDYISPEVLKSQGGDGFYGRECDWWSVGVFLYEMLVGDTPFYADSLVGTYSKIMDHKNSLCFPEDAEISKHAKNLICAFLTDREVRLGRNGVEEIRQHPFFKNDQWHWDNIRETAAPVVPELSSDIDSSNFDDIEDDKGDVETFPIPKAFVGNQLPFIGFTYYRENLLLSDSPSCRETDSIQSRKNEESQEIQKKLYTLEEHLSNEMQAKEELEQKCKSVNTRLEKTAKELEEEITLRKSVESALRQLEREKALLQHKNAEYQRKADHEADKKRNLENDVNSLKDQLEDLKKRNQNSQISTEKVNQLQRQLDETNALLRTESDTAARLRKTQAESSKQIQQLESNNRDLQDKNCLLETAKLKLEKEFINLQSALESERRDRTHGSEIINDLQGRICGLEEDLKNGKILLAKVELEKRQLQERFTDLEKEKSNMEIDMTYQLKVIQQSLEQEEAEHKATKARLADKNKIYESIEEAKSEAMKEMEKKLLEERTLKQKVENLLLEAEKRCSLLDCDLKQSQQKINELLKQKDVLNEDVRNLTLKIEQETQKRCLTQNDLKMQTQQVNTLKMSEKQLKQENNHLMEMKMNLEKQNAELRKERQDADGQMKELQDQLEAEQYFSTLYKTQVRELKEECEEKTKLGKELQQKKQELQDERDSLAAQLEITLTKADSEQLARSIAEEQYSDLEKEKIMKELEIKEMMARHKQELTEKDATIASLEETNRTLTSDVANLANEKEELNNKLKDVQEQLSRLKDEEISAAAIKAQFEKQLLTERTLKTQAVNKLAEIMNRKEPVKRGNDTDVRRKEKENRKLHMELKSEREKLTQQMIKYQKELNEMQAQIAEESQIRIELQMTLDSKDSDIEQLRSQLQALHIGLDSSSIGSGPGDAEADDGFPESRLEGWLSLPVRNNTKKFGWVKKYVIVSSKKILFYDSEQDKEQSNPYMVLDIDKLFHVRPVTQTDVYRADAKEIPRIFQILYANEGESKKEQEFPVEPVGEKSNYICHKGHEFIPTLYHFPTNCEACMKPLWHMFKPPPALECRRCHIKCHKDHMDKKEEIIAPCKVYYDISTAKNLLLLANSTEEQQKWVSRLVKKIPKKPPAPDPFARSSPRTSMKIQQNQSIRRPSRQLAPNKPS

Compound	IC50 (ROCK2) [µM]	IC50 (ROCK1) [µM]
COc1cc(C(=O)N[C@H](C)c2ccc3ccccc3c2)ccc1-c1cn[nH]c1 [Example 74, (R)-3-methoxy-N-(1-(naphthalen-2-yl)ethyl)-4-(1H-pyrazol-4-yl)benzamide]	0.00918	0.0363
COc1cc(C(=O)NCc2cc(F)c(F)c(F)c2)ccc1-c1cn[nH]c1 [Example 75, 3-methoxy-4-(1H-pyrazol-4-yl)-N-(3,4,5-trifluorobenzyl) benzamide]	0.00826	0.0341
COc1cc(C(=O)NCc2cc(Cl)ccc2Cl)ccc1-c1cn[nH]c1 [Example 76, N-(2,5-dichlorobenzyl)-3-methoxy-4-(1H-pyrazol-4-yl)benzamide]	0.0022	0.00772
COc1cc(C(=O)NCc2ccc3nc(N)sc3c2)ccc1-c1cn[nH]c1 [Example 77, N-((2-aminobenzo[d]thiazol-6-yl)methyl)-3-methoxy-4-(1H-pyrazol-4-yl)benzamide]	0.401	1.24
COc1cc(C(=O)NCc2cccc(OC(F)F)c2)ccc1-c1cn[nH]c1 [Example 78, N-(3-(difluoro-methoxy)benzyl)-3-methoxy-4-(1H-pyrazol-4-yl)benzamide]	0.00394	0.0218
COc1cc(C(=O)NCc2ccc(F)c(F)c2)ccc1-c1cn[nH]c1 [Example 79, N-(3,4-difluorobenzyl)-3-methoxy-4-(1H-pyrazol-4-yl)benzamide]	0.00796	0.0228
COc1cc(C(=O)NCc2c(F)ccc(C)c2F)ccc1-c1cn[nH]c1 [Example 80, N-(2,6-difluoro-3-methylbenzyl)-3-methoxy-4-(1H-pyrazol-4-yl)benzamide]	0.00297	0.0132
COc1cc(C(=O)NCc2cc(F)ccc2Cl)ccc1-c1cn[nH]c1 [Example 82, N-(2-chloro-5-fluorobenzyl)-3-methoxy-4-(1H-pyrazol-4-yl)benzamide]	0.00439	0.00989
COc1cc(C(=O)NCc2cccc(C(=O)NC3(C)CC3)c2)ccc1-c1cn[nH]c1 [Example 83, 3-methoxy-N-(3-((1-methylcyclopropyl)carbamoyl)benzyl)-4-(1H-pyrazol-4-yl)benzamide]	0.00114	0.00316
Cc1cc(C(=O)N[C@H](C)c2ccccc2)ccc1-c1cn[nH]c1 [Example 84, 3-Methyl-N-[(1R)-1-phenylethyl]-4-(1H-pyrazol-4-yl)benzamide]	0.00351	0.011
COc1cc(C(=O)NCc2cccc(CN(C)C)c2)ccc1-c1cn[nH]c1 [Example 85, N-({3-[(dimethylamino)methyl]phenyl}methyl)-3-methoxy-4-(1H-pyrazol-4-yl)benzamide]	0.474	2.51
COc1cc(C(=O)NCc2cccc3[nH]ncc23)ccc1-c1cn[nH]c1 [Example 86, N-(1H-indazol-4-ylmethyl)-3-methoxy-4-(1H-pyrazol-4-yl)benzamide]	0.00799	0.0418
COc1cc(C(=O)NCc2cccc(N3CCCC3)c2)ccc1-c1cn[nH]c1 [Example 87, 3-methoxy-4-(1H-pyrazol-4-yl)-N-{[3-(pyrrolidin-1-yl)phenyl]methyl} benzamide]	0.13	0.724
COc1cc(C(=O)NCc2c(F)ccc(F)c2Cl)ccc1-c1cn[nH]c1 [Example 88, N-[(2-chloro-3,6-difluorophenyl)methyl]-3-methoxy-4-(1H-pyrazol-4-yl)benzamide]	0.00399	0.00846
COc1cc(C(=O)NCc2c(F)cc(F)cc2F)ccc1-c1cn[nH]c1 [Example 89, 3-methoxy-4-(1H-pyrazol-4-yl)-N-[(2,4,6-trifluorophenyl)methyl] benzamide]	0.0111	0.0219
COc1cc(C(=O)NC(CCO)c2ccccc2)ccc1-c1cn[nH]c1 (centres unmarked) [Example 90, N-(3-hydroxy-1-phenylpropyl)-3-methoxy-4-(1H-pyrazol-4-yl)benzamide]	0.0064	0.0124
COc1cc(C(=O)NCc2cc(F)cc(F)c2F)ccc1-c1cn[nH]c1 [Example 91, 3-methoxy-4-(1H-pyrazol-4-yl)-N-[(2,3,5-trifluorophenyl)methyl] benzamide]	0.00766	0.0385
COc1cc(C(=O)NCc2ccc(Cl)cc2Cl)ccc1-c1cn[nH]c1 [Example 93, N-[(2,4-dichlorophenyl)methyl]-3-methoxy-4-(1H-pyrazol-4-yl)benzamide]	0.0276	0.0993
COc1cc(C(=O)NCc2cccc(NS(C)(=O)=O)c2)ccc1-c1cn[nH]c1 [Example 94, N-[(3-methanesulfon-amidophenyl)methyl]-3-methoxy-4-(1H-pyrazol-4-yl)benzamide]	0.00633	0.0246
COc1cc(C(=O)NCc2cccc(N(C)C)c2)ccc1-c1cn[nH]c1 [Example 95, N-{[3-(dimethylamino)phenyl]methyl}-3-methoxy-4-(1H-pyrazol-4-yl)benzamide]	0.0476	0.371

Compound	IC50 (ROCK2) [µM]	IC50 (ROCK1) [µM]
COc1cc(CNC(=O)c2ccc(-c3cn[nH]c3)c(OC)c2)ccc1F [Example 96, N-[(4-fluoro-3-methoxyphenyl)methyl]-3-methoxy-4-(1H-pyrazol-4-yl)benzamide]	0.00241	0.026
COc1cc(C(=O)NCc2c(F)ccc(F)c2F)ccc1-c1cn[nH]c1 [Example 97, 3-methoxy-4-(1H-pyrazol-4-yl)-N-[(2,3,6-trifluorophenyl)methyl] benzamide]	0.00246	0.0229
COc1cc(C(=O)NCc2c(F)cccc2F)ccc1-c1cn[nH]c1 [Example 98, N-[(2,6-difluorophenyl)methyl]-3-methoxy-4-(1H-pyrazol-4-yl)benzamide]	0.00295	0.0178
COc1cc(C(=O)NCc2ccc(Cl)cc2F)ccc1-c1cn[nH]c1 [Example 99, N-[(4-chloro-2-fluorophenyl)methyl]-3-methoxy-4-(1H-pyrazol-4-yl)benzamide]	0.00136	0.0158
COc1cc(C(=O)NCc2cccc(N(C)C(C)=O)c2)ccc1-c1cn[nH]c1 [Example 100, 3-methoxy-N-{[3-(N-methyl-acetamido)phenyl]methyl}-4-(1H-pyrazol-4-yl)benzamide]	0.299	4.08
COc1cc(C(=O)NC(C)c2ccc3c(c2)OCCO3)ccc1-c1cn[nH]c1 (centres unmarked) [Example 101, N-[1-(2,3-dihydro-1,4-benzodioxin-6-yl)ethyl]-3-methoxy-4-(1H-pyrazol-4-yl)benzamide]	0.189	0.742
COc1cc(C(=O)NCc2ccc3[nH]c(=O)[nH]c3c2)ccc1-c1cn[nH]c1 [Example 102, 3-methoxy-N-[(2-oxo-2,3-dihydro-1H-1,3-benzodiazol-5-yl)methyl]-4-(1H-pyrazol-4-yl)benzamide]	0.662	3.77
COc1cc(C(=O)NCc2ccc3sccc3c2)ccc1-c1cn[nH]c1 [Example 104, N-(1-benzothiophen-5-ylmethyl)-3-methoxy-4-(1H-pyrazol-4-yl)benzamide]	0.00944	0.0249
COc1cc(C(=O)NCc2c(F)cccc2Cl)ccc1-c1cn[nH]c1 [Example 105, N-[(2-chloro-6-fluorophenyl)methyl]-3-methoxy-4-(1H-pyrazol-4-yl)benzamide]	0.00359	0.0117
COc1cc(C(=O)N[C@H](C)c2ccc3c(c2)CCO3)ccc1-c1cn[nH]c1 [Example 106, N-[(1R)-1-(2,3-dihydro-1-benzofuran-5-yl)ethyl]-3-methoxy-4-(1H-pyrazol-4-yl)benzamide]	0.027	0.0501
COC(=O)c1cccc(CNC(=O)c2ccc(-c3cn[nH]c3)c(C)c2)c1 [Example 108, methyl 3-({[3-methyl-4-(1H-pyrazol-4-yl)phenyl] formamido}methyl) benzoate]	0.00261	0.0139
COc1cccc([C@@H](C)NC(=O)c2ccc(-c3cn[nH]c3)cc2Cl)c1 [Example 109, 2-chloro-N-[(1R)-1-(3-methoxyphenyl)ethyl]-4-(1H-pyrazol-4-yl)benzamide]	0.144	0.529
COc1cc(C(=O)N[C@H](CO)[C@H](O)c2ccccc2)ccc1-c1cn[nH]c1 [Example 112, N-[(1R,2R)-1,3-dihydroxy-1-phenylpropan-2-yl]-3-methoxy-4-(1H-pyrazol-4-yl)benzamide]	0.00272	0.0239
COC[C@H](NC(=O)c1ccc(-c2cn[nH]c2)c(OC)c1)[C@@H](O)c1ccccc1 [Example 113, N-[(1S,2S)-1-hydroxy-3-methoxy-1-phenylpropan-2-yl]-3-methoxy-4-(1H-pyrazol-4-yl)benzamide]	0.33	0.602
COc1cccc(CCNC(=O)c2ccc(-c3cn[nH]c3)c(OC)c2)c1 [Example 114, 3-methoxy-N-[2-(3-methoxyphenyl)ethyl]-4-(1H-pyrazol-4-yl)benzamide]	0.0596	0.0929
COc1cc(C(=O)N[C@@H](Cc2ccccc2)C(N)=O)ccc1-c1cn[nH]c1 [Example 115, (2S)-2-{[3-methoxy-4-(1H-pyrazol-4-yl)phenyl] formamido}-3-phenyl-propanamide]	0.014	0.0374
COc1cccc(C2(NC(=O)c3ccc(-c4cn[nH]c4)c(OC)c3)CC2)c1 [Example 116, 3-methoxy-N-[1-(3-methoxyphenyl)cyclopropyl]-4-(1H-pyrazol-4-yl)benzamide]	0.0179	0.0552
COc1cc(C(=O)NC[C@H](C)c2ccccc2)ccc1-c1cn[nH]c1 [Example 117, 3-methoxy-N-[(2R)-2-phenylpropyl]-4-(1H-pyrazol-4-yl)benzamide]	0.0302	0.0505
COc1cc(C(=O)NCC(C#N)c2ccccc2)ccc1-c1cn[nH]c1 (centres unmarked) [Example 118, N-(2-cyano-2-phenylethyl)-3-methoxy-4-(1H-pyrazol-4-yl)benzamide]	0.0277	0.0387
COc1cc(C(=O)N[C@@H](Cc2ccc(F)cc2)C(=O)N(C)C)ccc1-c1cn[nH]c1 [Example 119, (2S)-3-(4-fluorophenyl)-2-{[3-methoxy-4-(1H-pyrazol-4-yl)phenyl] formamido}-N,N-dimethyl-propanamide]	1.01	2.27
